Measurements taken from patent US7803795B2, “Phthalazine derivatives as parp inhibitors” (Janssen Pharmaceutica N.V., priority 2004, dated 2010).

Each compound was assayed against T1, PARP-1 enzyme (Homo sapiens, UniProt P09874) (assay: in vitro filtration assay for PARP-1 inhibitory activity). Details: [32P]-NAD, histones, nicked DNA; dose-response 10^-5 M to 10^-8 M; read-out: in vitro filter assay PARP-1 pIC50 (converted).
T1 construct: made in house
Assay type: biochemical
Method: In Vitro Filtration Assay for PARP-1 Inhibitory Activity
Compounds of the present invention were tested in an in vitro filtration assay assessing PARP-1 activity (triggered in the presence of nicked DNA) by means of its histone poly (ADP-ribosylation activity using [^32P]-NAD as ADP-ribosyl donor. The radioactive ribosylated histones were precipitated by trichloroacetic acid (TCA) in 96-well filterplates and the incorporated [^32P] measured using a scintillation counter
A mixture of histones (stock solution: 5 mg/ml in H2O), NAD^+ (stock solution: 100 mM in H2O), and [^32P]-NAD^+ in incubation buffer (50 mM Tris/HCl, pH 8; 0.2 mM DTT; 4 mM MgCl2) was made. A mixture of the PARP-1 enzyme (5-10 μg/ml) and nicked DNA was also made. The nicked DNA was prepared as described in the in vitro SPA for PARP-1 inhibitory activity. Seventy-five μl of the PARP-1 enzyme/DNA mixture together with 1 μl of compound in DMSO and 25 μl of histones-NAD^+/[^32P]-NAD^+ mixture was added per well of a 96-well filterplate (0.45 μm, supplier Millipore). The final concentrations in the incubation mixture were 2 μg/ml for the histones, 0.1 mM for the NAD^+, […] (0.5 μC) for the [^32P]-NAD^+ and 2 μg/ml for the nicked DNA. Plates were incubated for 15 min. at room temperature and the reaction was terminated by the addition of 10 μl ice cold 100% TCA followed by the addition of 10 μl ice-cold BSA solution (1% in H2O). The protein fraction was allowed to precipitate for 10 min. at 4° C. and plates were vacuum filtered. The plates were subsequently washed with, for each well, 1 ml of 10% ice cold TCA, 1 ml of 5% ice cold TCA and 1 ml of 5% TCA at room temperature. Finally 100 μl of scintillation solution (Microscint 40, Packard) was added to each well and the plates were transferred to a TopCountNXT™ (supplier: Packard) for scintillation counting and values were expressed as counts per minute (cpm). For each experiment, controls (containing PARP-1 enzyme and DMSO without compound), a blank incubation (containing DMSO but no PARP-1 enzyme or compound) and samples (containing PARP-1 enzyme and compound dissolved in DMSO) were run in parallel. All compounds tested were dissolved and eventually further diluted in DMSO. In first instance, compounds were tested at a concentration of 10^−5M. […] In each test, the blank value was subtracted from both the control and the sample values. The control sample represented maximal PARP-1 enzyme activity. For each sample, the amount of cpm was expressed as a percentage of the mean cpm value of the controls. When appropriate, IC50-values (concentration of the drug, needed to reduce the PARP-1 enzyme activity to 50% of the control) were computed using linear interpolation between the experimental points just above and below the 50% level. Herein the effects of test compounds are expressed as pIC50 (the negative log value of the IC50-value). As a reference compound, 4-amino-1,8-naphthalimide was included to validate the filtration assay.

T1 sequence (P09874 whole entry): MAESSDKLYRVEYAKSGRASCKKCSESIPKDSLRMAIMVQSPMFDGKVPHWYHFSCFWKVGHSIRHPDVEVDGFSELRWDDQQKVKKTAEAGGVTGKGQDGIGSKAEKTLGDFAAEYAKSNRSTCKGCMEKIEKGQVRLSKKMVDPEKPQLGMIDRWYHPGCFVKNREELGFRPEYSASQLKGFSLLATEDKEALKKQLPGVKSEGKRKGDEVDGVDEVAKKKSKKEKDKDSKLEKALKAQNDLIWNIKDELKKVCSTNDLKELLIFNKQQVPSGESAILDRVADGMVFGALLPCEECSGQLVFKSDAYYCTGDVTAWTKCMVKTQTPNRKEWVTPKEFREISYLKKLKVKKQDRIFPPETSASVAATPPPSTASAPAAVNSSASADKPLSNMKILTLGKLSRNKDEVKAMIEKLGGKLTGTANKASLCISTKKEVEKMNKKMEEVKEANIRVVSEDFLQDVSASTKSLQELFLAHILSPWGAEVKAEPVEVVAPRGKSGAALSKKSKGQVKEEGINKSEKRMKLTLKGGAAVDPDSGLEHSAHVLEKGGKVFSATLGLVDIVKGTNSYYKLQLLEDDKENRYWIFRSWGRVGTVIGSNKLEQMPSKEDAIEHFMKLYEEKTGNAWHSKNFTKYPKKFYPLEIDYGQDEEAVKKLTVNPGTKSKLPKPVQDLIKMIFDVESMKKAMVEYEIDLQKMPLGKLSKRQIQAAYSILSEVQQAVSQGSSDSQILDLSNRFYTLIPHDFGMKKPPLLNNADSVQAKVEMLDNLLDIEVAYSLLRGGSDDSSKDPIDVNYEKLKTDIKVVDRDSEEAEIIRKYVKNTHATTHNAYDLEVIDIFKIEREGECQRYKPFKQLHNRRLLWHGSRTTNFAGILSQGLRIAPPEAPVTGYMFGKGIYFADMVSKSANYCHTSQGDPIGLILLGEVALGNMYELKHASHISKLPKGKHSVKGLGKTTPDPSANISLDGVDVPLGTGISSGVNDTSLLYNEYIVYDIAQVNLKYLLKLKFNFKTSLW

Structure (SMILES)	IC50 [nM]
Cc1nnc(N2CCN(CCn3c(=O)[nH]c4ccccc43)CC2)c2ccccc12 [Compound 71]	533
O=c1[nH]nc(C2CCN(c3ncccn3)CC2)c2ccccc12 [Compound 69]	125
Cc1nnc(N2CCN(CCCC(c3ccc(F)cc3)c3ccc(F)cc3)CC2)c2ccccc12 [Compound 29]	302
O=c1[nH]nc(NC2CCCN(CCCC(c3ccc(F)cc3)c3ccc(F)cc3)CC2)c2ccccc12 (centres unmarked) [Compound 30]	230
CCOC(=O)N1CCCC(Nc2n[nH]c(=O)c3ccccc23)CC1 (centres unmarked) [Compound 50]	643
O=c1[nH]nc(NC2CCN(C/C=C/c3ccccc3)CC2)c2ccccc12 [Compound 65]	91.2
O=c1[nH]nc(C2CCN(CCCCOc3ccccc3)CC2)c2ccccc12 [Compound 68]	50
O=c1[nH]nc(N[C@@H]2C[C@H]3CC[C@@H](C2)N3CCCC(c2ccc(F)cc2)c2ccc(F)cc2)c2ccccc12 [Compound 3]	204
Cc1nc2n(c(=O)c1CCN1CCN(c3nnc(C)c4ccccc34)CC1)CCCS2 [Compound 76]	413
CCOC(=O)N1CCN(c2nnc(Cl)c3ccccc23)CC1 [Compound 58]	316
Clc1nnc(NC2CCN(CCCCOc3ccccc3)CC2)c2ccccc12 [Compound 59]	813
O=c1[nH]nc(N[C@@H]2C[C@H]3CC[C@@H](C2)N3)c2ccccc12 [Compound 15]	35.5
Fc1ccc(C(CCCN2CCN(c3nnc(Cl)c4ccccc34)CC2)c2ccc(F)cc2)cc1 [Compound 57]	472
CCOC(=O)N1CCC(Nc2n[nH]c(=O)c3ccccc23)C1 (centres unmarked) [Compound 48]	163
Cc1nc2scc(C)n2c(=O)c1CCN1CCN(c2nnc(C)c3ccccc23)CC1 [Compound 74]	610
O=c1[nH]nc(C2CCN(Cc3ccccc3)CC2)c2ccccc12 [Compound 1]	55
O=c1[nH]nc(NC2CCCNCC2)c2ccccc12 (centres unmarked) [Compound 34]	49.4
CN(c1nc2ccccc2s1)C1CCN(c2nnc(Cl)c3ccccc23)CC1 [Compound 61]	296
O=c1[nH]nc(NC2CCN(C[C@@H](O)[C@@H]3CCc4ccccc4O3)CC2)c2ccccc12 (relative stereo) [Compound 27]	215
Clc1nnc(NC2CCN(Cc3ccccc3)C2)c2ccccc12 (centres unmarked) [Compound 12]	188
O=c1[nH]nc(N2CCC(c3cccc(C(F)(F)F)c3)C2)c2ccccc12 (centres unmarked) [Compound 55]	210

Structure (SMILES)	IC50 [nM]
CCOC(=O)N1CCC(c2n[nH]c(=O)c3ccccc23)CC1 [Compound 25]	240
CCOC(=O)N1CCC(Nc2n[nH]c(=O)c3ccccc23)CC1 [Compound 56]	774
O=c1[nH]nc(C2CCN(C/C=C/c3ccccc3)CC2)c2ccccc12 [Compound 66]	96.4
Cc1nc2sccn2c(=O)c1CCN1CCN(c2nnc(C)c3ccccc23)CC1 [Compound 73]	515
Cc1nc2n(c(=O)c1CCN1CCN(c3nnc(C)c4ccccc34)CC1)CCS2 [Compound 75]	361
Clc1nnc(N2CCN(c3ccccc3)CC2)c2ccccc12 [Compound 77]	168
CCOC(=O)N1[C@@H]2CC[C@H]1C[C@H](Nc1n[nH]c(=O)c3ccccc13)C2 [Compound 11]	30
O=c1[nH]nc(C2CCN(CCCC(c3ccc(F)cc3)c3ccc(F)cc3)CC2)c2ccccc12 [Compound 67]	233
COc1ccc(CCN2CCC(Nc3n[nH]c(=O)c4ccccc34)CC2)cc1 [Compound 63]	146
O=c1[nH]nc(N2CCN(CCCC(c3ccc(F)cc3)c3ccc(F)cc3)CC2)c2ccccc12 [Compound 52]	356
CCOC(=O)N1[C@@H]2CC[C@H]1C[C@H](Nc1nnc(Cl)c3ccccc13)C2 [Compound 24]	388
O=c1[nH]nc(C2CCN(CCCOc3ccc(F)cc3)CC2)c2ccccc12 [Compound 13]	19.1
O=c1[nH]nc(NCC2CCCN(Cc3ccccc3)C2)c2ccccc12 (centres unmarked) [Compound 44]	221
O=c1[nH]nc(C2CCNCC2)c2ccccc12 [Compound 4]	70.8
O=c1[nH]nc(NC2CCCN(Cc3ccccc3)C2)c2ccccc12 (centres unmarked) [Compound 53]	217
O=c1[nH]nc(NC2CCN(Cc3ccccc3)C2)c2ccccc12 (centres unmarked) [Compound 51]	300
Cc1nc2ccccn2c(=O)c1CCN1CCN(c2nnc(C)c3ccccc23)CC1 [Compound 72]	1050
O=c1[nH]nc(NC2CCN(CCCCOc3ccccc3)CC2)c2ccccc12 [Compound 46]	134
Cc1nnc(N2CCN(CCn3c(=O)[nH]c4ccccc4c3=O)CC2)c2ccccc12 [Compound 70]	268
O=c1[nH]nc(NCC2CCCN(CCCC(c3ccc(F)cc3)c3ccc(F)cc3)C2)c2ccccc12 (centres unmarked) [Compound 49]	516
